The nature of data set [1]: Plasma protein binding, human plasma. The settings on record: pH 7.4, read-out: human PPB fu. The format is in vitro ADME.
For another data set, the target named is T1, mouse PAR4 (Mus musculus, UniProt O88634).
T1 construct: washed mouse platelets were prepared by collecting cardiac puncture blood; endogenous in cells; host or cells: washed mouse platelets (cardiac puncture blood)
T1 sequence (O88634 17-396): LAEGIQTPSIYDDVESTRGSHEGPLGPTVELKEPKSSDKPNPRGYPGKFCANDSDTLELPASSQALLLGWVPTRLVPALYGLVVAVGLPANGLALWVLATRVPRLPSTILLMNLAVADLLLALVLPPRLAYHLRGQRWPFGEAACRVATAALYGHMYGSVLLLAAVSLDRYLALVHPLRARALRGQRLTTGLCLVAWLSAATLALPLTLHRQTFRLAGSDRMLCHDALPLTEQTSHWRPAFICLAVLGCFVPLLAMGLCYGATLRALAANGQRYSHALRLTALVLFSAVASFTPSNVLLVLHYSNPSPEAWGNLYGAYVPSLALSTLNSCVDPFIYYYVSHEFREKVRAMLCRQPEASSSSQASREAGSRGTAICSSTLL
As to the kind of experiment: Mouse platelet activity assay, flow cytometry, γ-thrombin activation. The format is cell-based. The procedure:
For mouse PAR4 activity, washed mouse platelets were prepared by collecting cardiac puncture blood with 200 μL of 20 U/mL heparin. Following centrifugation at 1000 rpm for 15 min, plasma and buffy coat were collected into a separate tube and spiked with apyrase and PGE1. After centrifuging at 1000 rpm for 8 min, the platelet-rich plasma was transferred to another tube and centrifuged at 2200 rpm for 10 min to pellet the platelets. Platelets were resuspended in TBB + apyrase + PGE1. Platelets were counted and diluted in TBB to a final concentration of 2 × 10^7 platelets/mL. 50 μL of platelets were aliquoted to each tube preincubated with 50 μL of TBB with antibodies for mouse GPIIbIIIa and P-selectin (Emfret, Eibelstadt Germany) and either test compound antagonist or DMSO control. Platelets were activated with 316 nM γ-thrombin for 30 min. Samples were then fixed with 100 μL of 2% paraformaldehyde for 20 min and diluted with 300 μL of PBS. Flow cytometry counts are measured as for human platelets on a three-laser BD LSRFortessa (Becton Dickinson) and analyzed with FloJo software.
Background: A flow cytometer gives signals particle by particle.

Data set [2] in a line: Plasma protein binding, mouse plasma. It is filed as in vitro ADME. The settings on record: pH 7.4, read-out: mouse PPB fu. The procedure:
The protein binding of each compound was determined in mouse plasma via equilibrium dialysis employing single-use RED plates with inserts (Thermo Fisher Scientific, Rochester, NY). Plasma (220 μL) was added to a 96-well plate containing test compound (5 μL) and mixed thoroughly. Subsequently, 200 μL of the plasma–compound mixture was transferred to the cis chamber (red) of the RED plate with an accompanying 350 μL of phosphate buffer (25 mM, pH 7.4) in the trans chamber. The RED plate was sealed and incubated for 4 h at 37 °C with shaking. At completion, 50 μL aliquots from each chamber were diluted 1:1 (50 μL) with either plasma (cis) or buffer (trans) and transferred to a new 96-well plate, at which time ice-cold acetonitrile (2 volumes) was added to extract the matrices. The plate was centrifuged (3000 rpm, 10 min), and supernatants were transferred and diluted 1:1 (supernatant: water) into a new 96-well plate, which was then sealed in preparation for LC/MS/MS analysis. Each compound was assayed in triplicate within the same 96-well plate.
The analysis of in vitro samples from microsomal stability or plasma protein binding experiments was determined by employing LCMS/MS with an electrospray ionization-enabled 5500 Sciex instrument (Sciex, Foster City, CA) that was coupled to Agilent HPLC pumps and an autosampler (Agilent Technologies, Santa Clara, CA). Analytes were separated by gradient elution using a Kinetex C18 column (2.1 mm × 50 mm, 5 μm; Phenomenex, Torrance, CA) warmed to 35 °C. Mobile phase A was 0.5% formic acid in water, and mobile phase B was 0.5% formic acid in acetonitrile. […] The total run time was 2.8 min, and the HPLC flow rate was 0.5 mL/min. […] Data were analyzed using OS Sciex Analyst 1.5.1 (SCIEX, Framingham, MA), Graphpad Prism 10.1.0 (GraphPad Software, Boston, Massachusetts), and Microsoft Excel version 2310 (Microsoft, Redmond, WA).

The mark [3] stands for this setting: Table 4 summary, read-out: mouse PAR4 IC50.
Where [4] appears, read: mouse platelets, 316 nM γ-thrombin, GPIIbIIIa (JonA), read-out: Mouse Platelets JonA IC50.
[5] abbreviates: mouse platelets, 316 nM γ-thrombin, P-selectin, read-out: Mouse Platelets P-Sel IC50.

Data on 5 compounds can be found in article PMC11020070, “Discovery of Protease-Activated Receptor 4 (PAR4)-Tethered Ligand Antagonists Using Ultralarge Virtual Screening” (ACS Pharmacology & Translational Science, 2024).

Read-outs that look alike come from different tables or passages of the source.

Usually IC50 stands for the midpoint of a concentration-inhibition curve. Consider `Cc1cc(C(=O)Nc2n[nH]c(OC(F)F)n2)nn1-c1ccccc1` [Compound 9], for which, in data set [1], the fraction unbound at 4 h came to 0.036. In addition, the IC50 on mouse PAR4 (setting [3]), on mouse PAR4 (setting [4]) and at mouse PAR4 (setting [5]) was 1450 nM throughout.

Regarding `Cn1nc(C(=O)Nc2n[nH]c(-c3c(F)cccc3F)n2)cc1C1CC1` [Compound 12], the figures for the fraction unbound at 4 h in data set [1] and in data set [2] were 0.052 and 0.169, respectively. Also, the figures for the IC50 at mouse PAR4 (setting [4]) and at mouse PAR4 (setting [5]) were 401 nM and 370 nM, respectively.

As to `O=C(Nc1nc[nH]n1)c1nn(-c2ccccc2)c2c1CCC2` [Compound 17], the figures for the fraction unbound at 4 h in data set [1] and in data set [2] were 0.029 and 0.006, respectively. Besides, the results for the IC50 on mouse PAR4 (setting [3]), at mouse PAR4 (setting [4]) and on mouse PAR4 (setting [5]) were 3330 nM, 3330 nM and 4020 nM, respectively.

As for `O=C(Nc1n[nH]c(-c2ccc(F)cc2F)n1)c1nn(-c2ccccc2)c2c1CCCC2` [Compound 31], the fraction unbound at 4 h in data set [1] was 0.015; in data set [2], 0.044. In addition, the half-inhibitory concentration (IC50) stood at 367 nM on mouse PAR4 (setting [3]), 367 nM on mouse PAR4 (setting [4]) and 330 nM at mouse PAR4 (setting [5]).

In the case of `COc1cccc(-c2nc(NC(=O)c3nn(-c4ccccc4)c4c3CCCC4)n[nH]2)c1` [Compound 32], the fraction unbound at 4 h in data set [1] amounted to 0.007. Further, the values for the 50% inhibitory concentration (IC50) on mouse PAR4 (setting [3]), at mouse PAR4 (setting [4]) and on mouse PAR4 (setting [5]) were 269 nM, 269 nM and 298 nM, respectively.
